The values that follow come from patent US10485805B2, “Finafloxacin for use in the treatment of urinary tract infections” (MerLion Pharmaceuticals Pte. Ltd., priority 2015, dated 2019).

Several values for one entry are separate records, joined by “and”; a condition that tells them apart may be missing. Identical values can stand only once.

The subject of series [1] is fluoroquinolone-susceptible pathogens in the urine. The experiment in a line: Concentration of pathogens in the urine of patients with uncomplicated UTIs after a single oral dose. Particulars: for Bacteria per ml urine - hours after dose: 2 hours: 2 hours after oral dose of 300 mg finafloxacin or 250 mg ciprofloxacin; for Bacteria per ml urine - hours after dose: 2 hours / Bacteria per ml urine - hours after dose: 4 hours / Bacteria per ml urine - hours after dose: 8 hours: individual patients, uncomplicated UTI; for Bacteria per ml urine - hours after dose: 4 hours: 4 hours after oral dose of 300 mg finafloxacin or 250 mg ciprofloxacin; for Bacteria per ml urine - hours after dose: 8 hours: 8 hours after oral dose of 300 mg finafloxacin or 250 mg ciprofloxacin. It is filed as in vivo. How it is done: Patients with uncomplicated UTIs were treated with an oral dose of 300 mg finafloxacin or 250 mg of ciprofloxacin and the concentrations of the fluoroquinolone-susceptible pathogens in the urine were determined before and 2, 4 and 8 hours after intake of the drugs. (−bacterial titers below 10^3).

Series [2] concerns isolate (pathogen from urine of patients with uncomplicated UTI). In words: MIC of the patients' urine isolates. It is filed as cell-based. Particulars: ciprofloxacin MIC of each patient's isolate (patients 1-7, one line per patient).
The test system of series [3] is complicated UTIs or pyelonephritis. The experiment in a line: Double-blind, randomized clinical study, complicated UTIs or pyelonephritis: treatment success (combined clinical and microbiological response). It is filed as in vivo, patients. Particulars: 17 days after start of treatment.
Series [4] can be described thus: Solubility of finafloxacin in the presence of Tris. Particulars: compared with other buffer substances (e.g. phosphate buffer). It is filed as physicochemical. The text has this: (§1) However, Tris is herein used as solubility enhancing agent. […] Both effects lead to a completely unexpected result. Tris is therefore to be regarded as a specific tool to considerably enhance the solubility of finafloxacin in solutions. By preparing compositions comprising Tris it is possible to dissolve finafloxacin stably in such an amount therein that these compositions can effectively be used as parenteral compositions for the treatment of UTIs.

The next series concerns Pseudomonas aeruginosa. In words: Reduction of viable bacteria after 1 h exposure in broth adjusted to different pH values. Particulars: 1 h of incubation, inoculum 10^6 colony forming units per ml. It is filed as cell-based. How it is done:
(§2) An overnight inoculum of 10^6 colony forming units per ml broth adjusted to different pH values of different pathogens was exposed to finafloxacin. Bacterial growth was determined before and after 1 h of incubation.

Series [5] deals with Stenotrophomonas maltophilia clinical isolate. The description is as above. To be noted: 1 h of incubation, inoculum 10^6 colony forming units per ml. It is filed as cell-based. How it is done: as §2
Series [6] is described as follows: Stability of finafloxacin solutions comprising Tris. It is filed as physicochemical. Particulars: compositions comprising Tris.
Text: as §1

With `O=C(O)c1cn(C2CC2)c2cc(N3CCNCC3)c(F)cc2c1=O` [Ciprofloxacin, reference compound], in series [1], the “Bacteria per ml urine - hours after dose: 2 hours” value (“Bacteria per ml urine … 2 hours” for short) was “— (bacterial titers below 10^3) and 2.0 × 10^3 Bacteria per ml urine and 6.1 × 10^4 Bacteria per ml urine”; the “Bacteria per ml urine - hours after dose: 4 hours” value (“Bacteria per ml urine … 4 hours” below) is “— (bacterial titers below 10^3) (2×) and 2.7 × 10^3 Bacteria per ml urine”; the “Bacteria per ml urine - hours after dose: 8 hours” value is reported as “— (bacterial titers below 10^3)”. In series [1] (listed as ciprofloxacin), the “Bacteria per ml urine … 2 hours” value is given as “above 10^3 Bacteria per ml urine” and the “Bacteria per ml urine … 4 hours” value is recorded as “above 10^3 Bacteria per ml urine”. The “MIC of isolate [Cipro mg/L]” value in series [2] is 0.012 mg/L (3×) and 0.19 mg/L (2×) and 0.008 mg/L (2×).

As for `N#Cc1c(N2C[C@@H]3NCCO[C@H]3C2)c(F)cc2c(=O)c(C(=O)O)cn(C3CC3)c12` [Finafloxacin, (−)-8-cyano-1-cyclopropyl-6-fluoro-7-[(4aS,7aS)-hexahydropyrrolo[3,4-B]-1,4-oxazin-6(2H)-yl]-4-oxo-1,4-dihydroquinoline-3-carboxylic acid], the “treatment success (combined clinical response and microbiological response)” value in series [3] (overall treatment duration 5 days (3 days intravenous 800 mg daily, then oral 800 mg daily)) is on record as 70.3%; in series [3] (overall treatment duration 10 days (3 days intravenous, then 7 days oral)), 67.6%. Moreover, the solubility entry in series [4] is recorded as “high solubility”. Further, the “number of viable bacteria in the medium reduced by” value in the series with Pseudomonas aeruginosa (pH 5.2) amounted to 98.6%; in the series on Pseudomonas aeruginosa (pH 6.2), 99.3%; in the series with Pseudomonas aeruginosa (pH 7.2), 99.9%; in series [5] (pH 5.2), 87.4%; in series [5] (pH 7.2), 99.8%. Moreover, the figures for the “Bacteria per ml urine … 2 hours” value in series [1] and in series [1] (listed as finafloxacin) were “— (bacterial titers below 10^3)” and “below 10^3 Bacteria per ml urine”, respectively. The “Bacteria per ml urine … 4 hours” value in series [1] is on record as “— (bacterial titers below 10^3)”. For the same molecule, in series [1], the “Bacteria per ml urine - hours after dose: 8 hours” value is “— (bacterial titers below 10^3)”. For the same molecule, in series [1] (oral formulation, patients with uncomplicated UTIs), the “time after intake within which pathogens are eradicated in the urine” value was at most 2 h. Also, the stability of solutions result in series [6] is reported as “long term stability”.
